In US9296758B2, “2-quinolinyl-acetic acid derivatives as HIV antiviral compounds” (GILEAD SCIENCES, INC., priority 2010, dated 2016):

System: HIV-IIIb
Assay: Test A: Antiviral Assays in MT4 Cells
Format: cell-based
Conditions: MT-4 cells infected with HIV-IIIb (0.004 m.o.i.), 5 days of incubation, CellTiter-Glo chemiluminescence readout
Experimental: Test A: Antiviral Assays in MT4 Cells For the antiviral assay utilizing MT-4 cells, 0.4 μL of 189X test concentration of 3-fold serially diluted compound in DMSO was added to 40 μL of cell growth medium (RPMI 1640, 10% FBS, 1% penicillin/Streptomycin, 1% L-Glutamine, 1% HEPES) in each well of 384-well assay plates (10 concentrations) in quadruplicate. 1 mL aliquots of 2×10e6 MT-4 cells are pre-infected for 1 and 3 hrs respectively, @ 37° C. with 25 μL (MT4) or of either cell growth medium (mock-infected) or a fresh 1:250 dilution of an HIV-IIIb concentrated ABI stock (0.004 m.o.i. for MT4 cells). Infected and uninfected cells are diluted in cell growth medium and 35 uL of 2000 (for MT4) cells is added to each well of the assay plates. Assay plates were then incubated in a 37° C. incubator. After 5 days of incubation, 25 μl of 2× concentrated CellTiter-Glo™ Reagent (catalog #G7573, Promega Biosciences, Inc., Madison, Wis.) was added to each well of the assay plate. Cell lysis was carried out by incubating at room temperature for 2-3 min and then chemiluminescence was read using the Envision reader (PerkinElmer).

[1] = Human immunodeficiency virus 1, IIIB, MT4, 120 h

| Structure (SMILES) | EC50 [1] [nM] | EC50 [nM] |
| --- | --- | --- |
| CCC(C)c1ccc2c(-c3ccc4c5c(ccnc35)CCO4)c([C@H](OC(C)(C)C)C(=O)O)c(C)cc2n1 (stereo partly drawn) [Compound 49, (2S)-2-tert-Butoxy-2-((5R)-2-sec-butyl-5-(2,3-dihydropyrano[4,3,2-de]quinolin-7-yl)-7-methylquinolin-6-yl)acetic acid] | 27 | – |
| COc1ccc2c(-c3ccc(Cl)cc3)c([C@H](OC(C)(C)C)C(=O)O)c(C)cc2n1 [Compound 66, (S)-2-tert-butoxy-2-(5-(4-chlorophenyl)-2-methoxy-7-methylquinolin-6-yl)acetic acid] | 297 | – |
| Cc1cc2c(ccc(=O)n2Cc2ccccc2)c(-c2ccc(Cl)cc2)c1[C@H](OC(C)(C)C)C(=O)O [Compound 65B, (S)-2-(1-benzyl-5-(4-chlorophenyl)-7-methyl-2-oxo-1,2-dihydroquinolin-6-yl)-2-tert-butoxyacetic acid] | 55 | – |
| Cc1cc2c(ccc(=O)n2CCNC(=O)OCC2c3ccccc3-c3ccccc32)c(-c2ccc(Cl)cc2)c1[C@H](OC(C)(C)C)C(=O)O [Compound 101, (S)-2-(1-(2-(((9H-Fluoren-9-yl)methoxy)carbonylamino)ethyl)-5-(4-chlorophenyl)-7-methyl-2-oxo-1,2-dihydroquinolin-6-yl)-2-tert-butoxyacetic acid] | 367 | – |
| Cc1cc2ncccc2c(-c2ccc(Cl)cc2)c1[C@H](OC(C)(C)C)C(=O)O [Compound 3L, (S)-2-tert-butoxy-2-(5-(4-chlorophenyl)-7-methylquinolin-6-yl)acetic acid] | 1060 | – |
| Cc1cc2nc(CN(C)C)ccc2c(-c2ccc3c4c(ccnc24)CCO3)c1[C@H](OC(C)(C)C)C(=O)O [Compound 20, (S)-2-tert-butoxy-2-((R)-5-(2,3-dihydropyrano[4,3,2-de]quinolin-7-yl)-2-((dimethylamino)methyl)-7-methylquinolin-6-yl)acetic acid] | – | 1740 |
| Cc1cc2nc(CN(C)C)ccc2c(C2=CCCCC2)c1[C@H](OC(C)(C)C)C(=O)O [Compound 25, (S)-2-tert-butoxy-2-(5-cyclohexenyl-2-((dimethylamino)methyl)-7-methylquinolin-6-yl)acetic acid] | 346 | – |
| Cc1cc2nc(C#Cc3ccccc3)ccc2c(-c2ccc(Cl)cc2)c1[C@H](OC(C)(C)C)C(=O)O [Compound 37A, (S)-2-tert-butoxy-2-(5-(4-chlorophenyl)-7-methyl-2-(phenylethynyl)quinolin-6-yl)acetic acid] | 36 | – |
| Cc1cc2nc(C(F)(F)F)ccc2c(-c2ccc(Cl)cc2)c1[C@H](OC(C)(C)C)C(=O)O [Compound 7J, (S)-2-tert-butoxy-2-(5-(4-chlorophenyl)-7-methyl-2-(trifluoromethyl)quinolin-6-yl)acetic acid] | 160 | – |
| Cc1cc2nc(N(C)C)ccc2c(-c2ccc(Cl)cc2)c1[C@H](OC(C)(C)C)C(=O)O [Compound 32, (S)-2-tert-Butoxy-2-(5-(4-chlorophenyl)-2-(dimethylamino)-7-methylquinolin-6-yl)acetic acid] | 108 | – |
| Cc1cc2nc(NCCN3CCOCC3)ccc2c(-c2ccc(Cl)cc2)c1[C@H](OC(C)(C)C)C(=O)O [Compound 34, (S)-2-tert-Butoxy-2-(5-(4-chlorophenyl)-7-methyl-2-(2-morpholinoethylamino)quinolin-6-yl)acetic acid] | 266 | – |
| Cc1ccc2c(-c3ccc(Cl)cc3)c([C@H](OC(C)(C)C)C(=O)O)c(Cl)cc2n1 [Compound 1L, (S)-2-tert-butoxy-2-(7-chloro-5-(4-chlorophenyl)-2-methylquinolin-6-yl)acetic acid] | 170 | – |
| Cc1cc2nc(-c3ccc(Cl)cc3)ccc2c(-c2ccc3c4c(ccnc24)CCO3)c1[C@H](OC(C)(C)C)C(=O)O (atropisomer, axis not shown) [Compound 56, (S)-2-tert-Butoxy-2-((R)-2-(4-chlorophenyl)-5-(2,3-dihydropyrano[4,3,2-de]quinolin-7-yl)-7-methylquinolin-6-yl)acetic acid] | 40 | – |
| Cc1cc2c(ccc(=O)n2C)c(-c2ccc(Cl)cc2)c1[C@H](OC(C)(C)C)C(=O)O [Compound 67, (S)-2-tert-butoxy-2-(5-(4-chlorophenyl)-1,7-dimethyl-2-oxo-1,2-dihydroquinolin-6-yl)acetic acid] | 273 | – |
| Cc1cc2nc(-c3nccn3C)ccc2c(-c2ccc3c4c(ccnc24)CCO3)c1[C@H](OC(C)(C)C)C(=O)O (atropisomer, axis not shown) [Compound 84, (S)-2-tert-Butoxy-2-((R)-5-(2,3-dihydropyrano[4,3,2-de]quinolin-7-yl)-7-methyl-2-(1-methyl-1H-imidazol-2-yl)quinolin-6-yl)acetic acid] | 330 | – |
| Cc1cc2nc(C3CC3)ccc2c(-c2ccc3c4c(ccnc24)CCO3)c1[C@H](OC(C)(C)C)C(=O)O (atropisomer, axis not shown) [Compound 58, (S)-2-tert-Butoxy-2-((R)-2-cyclopropyl-5-(2,3-dihydropyrano[4,3,2-de]quinolin-7-yl)-7-methylquinolin-6-yl)acetic acid] | 14 | – |
| Cc1cc2nc(C(C)C)ccc2c(-c2ccc(Cl)cc2)c1[C@H](OC(C)(C)C)C(=O)O [Compound 90, (S)-2-tert-butoxy-2-(5-(4-chlorophenyl)-2-isopropyl-7-methylquinolin-6-yl)acetic acid] | 67 | – |
| Cc1cc2nc(N3CCC3)ccc2c(-c2ccc3c4c(ccnc24)CCO3)c1[C@H](OC(C)(C)C)C(=O)O (atropisomer, axis not shown) [Compound 95, (S)-2-((R)-2-(azetidin-1-yl)-5-(2,3-dihydropyrano[4,3,2-de]quinolin-7-yl)-7-methylquinolin-6-yl)-2-tert-butoxyacetic acid] | 54 | – |
| Cc1cc2c(ccc3nncn32)c(-c2ccc(Cl)cc2)c1[C@H](OC(C)(C)C)C(=O)O [Compound 63, (S)-2-tert-butoxy-2-(6-(4-chlorophenyl)-8-methyl-[1,2,4]triazolo[4,3-a]quinolin-7-yl)acetic acid] | 183 | – |
| Cc1cc2nc(NC3CC3)ccc2c(-c2ccc(Cl)cc2)c1[C@H](OC(C)(C)C)C(=O)O [Compound 30, (S)-2-tert-butoxy-2-(5-(4-chlorophenyl)-2-(cyclopropylamino)-7-methylquinolin-6-yl)acetic acid] | 153 | – |
| Cc1cc2nc(-c3cncn3C)ccc2c(-c2ccc3c4c(ccnc24)CCO3)c1[C@H](OC(C)(C)C)C(=O)O (atropisomer, axis not shown) [Compound 83, (S)-2-tert-Butoxy-2-((R)-5-(2,3-dihydropyrano[4,3,2-de]quinolin-7-yl)-7-methyl-2-(1-methyl-1H-imidazol-5-yl)quinolin-6-yl)acetic acid] | 42 | – |
| Cc1ccc2c(-c3ccc(Cl)cc3)c([C@H](OC(C)(C)C)C(=O)O)c(C)cc2n1 [Compound 2K, (S)-2-tert-butoxy-2-(5-(4-chlorophenyl)-2,7-dimethylquinolin-6-yl)acetic acid] | 55 | – |
| Cc1cc2nc(NCc3ccncc3)ccc2c(-c2ccc(Cl)cc2)c1[C@H](OC(C)(C)C)C(=O)O [Compound 33, (S)-2-tert-Butoxy-2-(5-(4-chlorophenyl)-7-methyl-2-(pyridin-4-ylmethylamino)quinolin-6-yl)acetic acid] | 95 | – |
| CCN(C)c1ccc2c(-c3ccc4c5c(ccnc35)CCO4)c([C@H](OC(C)(C)C)C(=O)O)c(C)cc2n1 [Compound 93, (S)-2-tert-Butoxy-2-((R)-5-(2,3-dihydropyrano[4,3,2-de]quinolin-7-yl)-2-(ethyl(methyl)amino)-7-methylquinolin-6-yl)acetic acid] | 94 | – |
| Cc1cc2cccnc2c(-c2ccc(Cl)cc2)c1[C@H](OC(C)(C)C)C(=O)O [Compound 4J, (S)-2-tert-butoxy-2-(8-(4-chlorophenyl)-6-methylquinolin-7-yl)acetic acid] | 543 | – |
| CC#Cc1ccc2c(-c3ccc4c5c(ccnc35)CCO4)c([C@H](OC(C)(C)C)C(=O)O)c(C)cc2n1 (atropisomer, axis not shown) [Compound 44, (S)-2-tert-Butoxy-2-((R)-5-(2,3-dihydropyrano[4,3,2-de]quinolin-7-yl)-7-methyl-2-(prop-1-ynyl)quinolin-6-yl)acetic acid] | 18 | – |
| Cc1cc2nc(CO)ccc2c(-c2ccc3c4c(ccnc24)CCO3)c1[C@H](OC(C)(C)C)C(=O)O [Compound 21, (S)-2-tert-Butoxy-2-((R)-5-(2,3-dihydropyrano[4,3,2-de]quinolin-7-yl)-2-(hydroxymethyl)-7-methylquinolin-6-yl)acetic acid] | 231 | – |
| Cc1cc2nc(-c3cncn3C)ccc2c(-c2ccc(Cl)cc2)c1[C@H](OC(C)(C)C)C(=O)O [Compound 82, (S)-2-tert-Butoxy-2-(5-(4-chlorophenyl)-7-methyl-2-(1-methyl-1H-imidazol-5-yl)quinolin-6-yl)acetic acid] | 171 | – |
| Cc1cc2nc(C(=O)N(C)C)ccc2c(-c2ccc(Cl)cc2)c1[C@H](OC(C)(C)C)C(=O)O [Compound 16, (S)-2-tert-Butoxy-2-(5-(4-chlorophenyl)-2-(dimethylcarbamoyl)-7-methylquinolin-6-yl)acetic acid] | 220 | – |
